# Measured values as given in patent US11951204B2, “Cell-penetrating peptides and composition including the same” (S-SKIN. CO., LTD., priority 2022, dated 2024).
# “And” between values parts separate entries of the source, which are not always exact repeats. Identical values can stand only once. Ends that are not written are not given here. Peptide text beside a SMILES is read from it. * marks the point of attachment. FITC = O=C1OC2(c3ccc(O)cc3Oc3cc(O)ccc32)c2ccc(NC(=S)*)cc21; Palmitoyl = CCCCCCCCCCCCCCCC(=O)*; Ahx = NCCCCCC(=O)O
# Legend:
# Assay type in all cases: cell-based, human
# HDF-N cells = conditions: for Cell viability(%): human, 24 h, 12.5 μM
# Experimental: Cytotoxicity of the cell-penetrating multifunctional peptide according to Example 1 was checked. Specifically, HaCaT cells (human keratinocytes) were inoculated at a concentration of 1.5×10^4 cells/well into a 96-well plate and incubated for 24 hours. Then, the medium was removed, followed by washing once with PBS, and replaced with a serum-free medium. The cells were treated with Spep001 (SEQ ID NO: 1), Spep002 (SEQ ID NO: 8) or Spep003 (SEQ ID NO: 9) at a concentration of 0 μM, 25 μM, 50 μM, 100 μM or 200 μM and then further incubated for 24 hours. Herein, culture conditions were maintained at 37° C. with 5% CO2.
# Also, at the time of completion of incubation, a WST-1 assay (Water Soluble Tetrazolium salt-1, EZ-assay kit, DoGenBio) was conducted. Specifically, 100 μL of a WST-1 solution was added to the well of cells after the completion of further incubation and then incubated for 3 hours. Thereafter, the absorbance at 450 nm was measured using a microplate spectrophotometer (Multiskan™ GO, thermo), and the result thereof is shown in FIG. 2B and Table 2 below.
# HDF-N cells were treated with 12.5 μM KTTKS (SEQ ID NO: 5), Spep001-KTTKS (SEQ ID NO: 6) and pal-KTTKS which are peptides fabricated in Example 9. The appearance and proliferation rate of the cells were measured as in Example 3, and the results thereof are shown in FIG. 9A(i) to FIG. 9A(iv), FIG. 9B and Table 7 below.
# HaCaT cells [1] = assay: Cell penetration rate by flow cytometry; conditions: 10 μM, 37° C., 1 hour
# Experimental: (§1) HaCaT cells were inoculated at a concentration of 3×10^5 cells/well into a 6-well plate and incubated for 24 hours. Then, the cell culture medium was removed, followed by washing twice with HBSS, and replaced with an Opti-MEM medium. The cells were treated with 10 μM FITC-TAT, FITC-Spep001, FITC-Spep002 or FITC-Spep003 and incubated at 37° C. with 5% CO2 for 1 hour. […] Finally, the cells were treated with 1 mg/mL trypsin and thus separated into single cells, followed by centrifugation at 1,000 rpm for 5 minutes. The FITC fluorescence intensities of cell-penetrating peptides per living 10,000 cells were measured by performing flow cytometry (Navios Flow Cytometer by Beckman Coulter Life Sciences), and the result thereof is shown in FIG. 5A(i) to FIG. 5A(v) and FIG. 5B.
# HaCaT cells [2] = assay: Dependence of cell penetration on ATP (flow cytometry); conditions: pre-treated with 2-DG and NaN3
# Experimental: as §1
# A test was conducted in the same conditions as those in Example 7 except that the cells were pre-treated with 2-DG (2-deoxyglucose, D6134, sigma) and NaN3 (sodium azide, 71289, sigma) one hour before treatment with FITC-TAT, FITC-Spep001, FITC-Spep002 or FITC-Spep003 to check the dependence of endocytosis on ATP. Then, the FITC fluorescence intensities of peptides penetrating into living cells were measured by flow cytometry as in Example 5, and the result thereof is shown in FIG. 7.
# HaCaT cells [3] = assay: Cell penetration by confocal laser microscope; conditions: 10 μM, 24 hours, compared to positive control FITC-TAT
# Experimental: HaCaT cells were inoculated at a concentration of 1.5×10^4 cells/well into an optical 96-well plate (M0562, Greiner) and incubated for 24 hours. Then, the medium was removed, followed by washing once with HBSS, and replaced with a serum-free medium. The cells were treated with 10 μM FITC-Spep001, FITC-Spep002 or FITC-Spep003 and then further incubated for 24 hours. Thereafter, the cells were washed four times with HBSS and treated with 10 μg/mL H33342 (bisBenzimide H33342 trihydrochloride (B2261, Sigma)) and then further incubated at room temperature for 5 minutes. Finally, the cells were washed three times with HBSS. The cell penetration rate was checked using a super resolution confocal laser microscope (LSM800), and the result thereof is shown in FIG. 4A(i) to FIG. 4F(iv). Herein, the cells were treated only FITC (F1906, Invitrogen™) as a negative control, and FITC-TAT was used as a positive control.
# [4] = Cytotoxicity assay of difunctional peptide (WST-1, microscopy); conditions: human, HDF-N cells, HDF-N, read-out: cell proliferation rate / survival rate (WST-1); for viability at 24 h, 12.5 µM: 12.5 μM peptide; for viability at 24 h, 25 µM: 25 μM peptide; for viability at 24 h, 50 µM: 50 μM peptide; for viability at 24 h, 100 µM: 100 μM peptide
# HDF-N = assay: as above; conditions: for change in the appearance of the cells (microscope): 12.5 μM to 100 μM
# [5] = system: collagen synthesis in HDF-N cells; assay: Synthesis of collagen, PIP (procollagen Type 1C-peptide) ELISA; conditions: 12.5 μM, 24 hours
# Experimental: HDF-N cells were inoculated at a concentration of 1×10^4 cells/well into a 96-well plate and incubated for 24 hours. Then, the medium was removed, followed by washing twice with PBS, and replaced with a serum-free medium. Thereafter, 12.5 μM KTTKS (SEQ ID NO: 5), Spep001-KTTKS (SEQ ID NO: 6) and pal-KTTKS were added to each well and then incubated for 24 hours. Then, 10 μL of the cell culture fluid was obtained and centrifuged at 800 rpm for 5 minutes. Thereafter, the degree of synthesis of collagen was checked using a PIP (procollagen Type 1C-peptide) ELISA kit (MK101, Takara), and the result thereof is shown in FIG. 10 and Table 8 below.
molecule,measurement,setting,value
"CCCCCCCCCCCCCCCC(=O)N[C@@H](CCCCN)C(=O)N[C@H](C(=O)N[C@H](C(=O)N[C@@H](CCCCN)C(=O)N[C@@H](CO)C(=O)O)[C@@H](C)O)[C@@H](C)O [Palmitoyl-KTTKS, Pal-KTTKS] (Palmitoyl-KTTKS-OH)",change in the appearance of the cells (microscope),HDF-N cells,appearance of the cells treated with Pal-KTTKS was changed
same,Cell viability(%),HDF-N cells,109.22%
"FITC-Ahx-KRRWRKIPKR ({FITC-Ahx}-KRRWRKIPKR) [FITC-Spep002, Spep002 labelled with FITC at the N-terminal amine group]",cell penetration rate (FITC-positive cell count),HaCaT cells [1],6.3%
same,cell penetration rate based on TAT-FITC with a cell penetration rate of 100%,HaCaT cells [1],23.3%
same,FITC fluorescence intensity under ATP deficiency,HaCaT cells [2],decreased
"FITC-Ahx-RKRWLRKPRP ({FITC-Ahx}-RKRWLRKPRP) [FITC-Spep003, Spep003 labelled with FITC at the N-terminal amine group]",cell penetration rate (FITC-positive cell count),HaCaT cells [1],7.8%
same,cell penetration rate based on TAT-FITC with a cell penetration rate of 100%,HaCaT cells [1],28.8%
same,FITC fluorescence intensity under ATP deficiency,HaCaT cells [2],decreased
"FITC-Ahx-RLRLRQRRRR ({FITC-Ahx}-RLRLRQRRRR) [FITC-Spep001, Spep001 labelled with FITC at the N-terminal amine group]",amount penetrating into cells (fluorescent microscopic image),HaCaT cells [3],penetrates into cells in a greater amount than the positive control FITC-TAT
same,cell penetration rate (FITC-positive cell count),HaCaT cells [1],36.3%
same,cell penetration rate based on TAT-FITC with a cell penetration rate of 100%,HaCaT cells [1],133.95%
same,FITC fluorescence intensity under ATP deficiency,HaCaT cells [2],decreased
"H-KTTKS-OH [KTTKS, reference compound]","viability at 24 h, 12.5 µM",[4],104 ± 13%
same,"viability at 24 h, 25 µM",[4],107 ± 20.1%
same,"viability at 24 h, 50 µM",[4],105 ± 4.28%
same,"viability at 24 h, 100 µM",[4],119 ± 11.6%
same,change in the appearance of the cells (microscope),HDF-N,no change in the appearance
same,change in the appearance of the cells (microscope),HDF-N cells,no change in the appearance
same,Cell viability(%),HDF-N cells,110.58%
same,PIP (collagen in cell culture fluid),[5],203.24 ng/mL and 203.24 ± 10.74 ng/mL
same,amount of collagen synthesized based on the control,[5],159.99%
"KTTKSRLRLRQRRRR [KTTKS-Spep001, KTTKSRLRLRQRRRR]","viability at 24 h, 12.5 µM",[4],111 ± 8.6%
same,"viability at 24 h, 25 µM",[4],120 ± 4.46%
same,"viability at 24 h, 50 µM",[4],107 ± 7.61%
same,"viability at 24 h, 100 µM",[4],94.1 ± 3.2%
same,change in the appearance of the cells (microscope),HDF-N,no change in the appearance
same,cell proliferation (in words),HDF-N; compared to control (0 μM),maintained at a level similar to that of a control
"RLRLRQRRRRKTTKS [Spep001-KTTKS, RLRLRQRRRRKTTKS]","viability at 24 h, 12.5 µM",[4],167 ± 13.4%
same,"viability at 24 h, 25 µM",[4],148 ± 8.42%
same,"viability at 24 h, 50 µM",[4],104 ± 3.16%
same,"viability at 24 h, 100 µM",[4],106 ± 11.4%
same,change in the appearance of the cells (microscope),HDF-N,no change in the appearance
same,cell proliferation rate / survival rate (WST-1),"HDF-N; HDF-N, 12.5 μM peptide",167.45±13.38%
same,change in the appearance of the cells (microscope),HDF-N cells,no change in the appearance
same,Cell viability(%),HDF-N cells,215.58%
